Tests used:
[1] = tested on: oligo-2: d(CGATGTACATCG)2; experiment: Fluorescence titration; assay type: binding; settings: 20 °C, pH 7.2
[2] = tested on: oligo-1: d(CGCGAATTCGCG)2; experiment: Fluorescence titration; assay type: binding; settings: 20 °C, pH 7.2
[3] = Behaviour of HCl salt in cell culture media; assay type: physicochemical

Ka binding affinity with oligo-2 [1] | Ka binding affinity with oligo-1 [2] | behaviour of HCl salt in cell culture media [3] | SMILES
2 × 10^6 M^1 | 7 × 10^6 M^–1 |  | CCCN1CCN(c2ccc3[nH]c(-c4ccc5[nH]c(-c6ccc(C(F)(F)F)cc6)nc5c4)nc3c2)CC1 [11b, 2-(4-(Trifluoromethyl)phenyl)-5-(5-(4-propylpiperazin-1-yl)-1H-benzo[d]imidazol-2-yl)-1H-benzo[d]imidazole]
2 × 10^6 M^1 | 9 × 10^6 M^–1 | precipitating in cell culture media | CCOc1ccc(-c2nc3ccc(-c4nc5ccc(N6CCN(CCN(C)C)CC6)cc5[nH]4)cc3[nH]2)cc1OCC [13a, 2-(4-(2′-(3,4-Diethoxyphenyl)-1H,3′H-[2,5′-bibenzo[d]imidazol]-6-yl)piperazin-1-yl)N,N-dimethylethan-1-amine]
2 × 10^6 M^1 | 7 × 10^6 M^–1 |  | CCOc1ccc(-c2nc3cc(-c4nc5cc(N6CCN(C)CC6)ccc5[nH]4)ccc3[nH]2)cc1OCC [10a, 2-(2-(3,4-Diethoxyphenyl)-1H-benzo[d]imidazol-5-yl)-5-(4-methylpiperazin-1-yl)-1H-benzo[d]imidazole]
4 × 10^6 M^1 |  |  | CCCCN1CCN(c2ccc3[nH]c(-c4ccc5[nH]c(-c6cc(OC)c(OC)c(OC)c6)nc5c4)nc3c2)CC1 [12d, 5-(4-Butylpiperazin-1-yl)-2-(2-(3,4,5-trimethoxyphenyl)-1H-benzo[d]imidazol-5-yl)-1H-benzo[d]imidazole]
3 × 10^6 M^1 | 7 × 10^6 M^–1 |  | CCCN1CCN(c2ccc3nc(-c4ccc5nc(-c6cc(OC)ccc6OC)[nH]c5c4)[nH]c3c2)CC1 [11c, 2′-(2,5-Dimethoxyphenyl)-6-(4-propylpiperazin-1-yl)-1H,3′H-2,5′-bibenzo[d]imidazole]
5 × 10^6 M^1 | 2 × 10^7 M^–1 |  | CCOc1ccc(-c2nc3ccc(-c4nc5ccc(N6CCN(C)CC6)cc5[nH]4)cc3[nH]2)cc1 [Hoechst 33342, reference compound]
2 × 10^6 M^1 | 8 × 10^6 M^–1 |  | COc1ccc(OC)c(-c2nc3ccc(-c4nc5ccc(N6CCN(C)CC6)cc5[nH]4)cc3[nH]2)c1 [10c, 2′-(2,5-Dimethoxyphenyl)-6-(4-methylpiperazin-1-yl)-1H,3′H-2,5′-bibenzo[d]imidazole]
1 × 10^6 M^1 |  |  | CCCN1CCN(c2ccc3[nH]c(-c4ccc5[nH]c(-c6cc(OC)c(OC)c(OC)c6)nc5c4)nc3c2)CC1 [11d, 5-(4-Propylpiperazin-1-yl)-2′-(3,4,5-trimethoxyphenyl)-1H,1′H-2,5′-bibenzo[d]imidazole]
2 × 10^6 M^1 |  |  | CCCCN1CCN(c2ccc3nc(-c4ccc5nc(-c6cc(OC)ccc6OC)[nH]c5c4)[nH]c3c2)CC1 [12c, 6-(4-Butylpiperazin-1-yl)-2′-(2,5-dimethoxyphenyl)-1H,3′H-2,5′-bibenzo[d]imidazole]
1 × 10^6 M^1 | 5 × 10^6 M^–1 | precipitating in cell culture media | COc1cc(-c2nc3ccc(-c4nc5ccc(N6CCN(CCN(C)C)CC6)cc5[nH]4)cc3[nH]2)cc(OC)c1OC [13d, 2-(4-(2′-(3,4,5-Trimethoxyphenyl)-1H,3′H-[2,5′-bibenzo[d]imidazol]-6-yl)piperazin-1-yl) N,N-Dimethylethan-1-amine]
1 × 10^6 M^1 | 5 × 10^6 M^–1 | precipitating in cell culture media | COc1ccc(OC)c(-c2nc3ccc(-c4nc5ccc(N6CCN(CCN(C)C)CC6)cc5[nH]4)cc3[nH]2)c1 [13c, 2-(4-(2′-(2,5-Dimethoxyphenyl)-1H,3′H-[2,5′-bibenzo[d]imidazol]-6-yl)piperazin-1-yl)-N,N-dimethylethan-1-amine]
3 × 10^6 M^1 | 1 × 10^7 M^–1 |  | CCCCN1CCN(c2ccc3[nH]c(-c4ccc5[nH]c(-c6ccc(OCC)cc6)nc5c4)nc3c2)CC1 [12e, 5-(4-Butylpiperazin-1-yl)-2′-(4-ethoxyphenyl)-1H,1′H-2,5′-bibenzo[d]imidazole]
3 × 10^6 M^1 | 7 × 10^6 M^–1 |  | CN1CCN(c2ccc3[nH]c(-c4ccc5[nH]c(-c6ccc(C(F)(F)F)cc6)nc5c4)nc3c2)CC1 [10b, 5-(4-Methylpiperazin-1-yl)-2′-(4-(trifluoromethyl)phenyl)-1H,1′H-2,5′-Bibenzo[d]imidazole]
